The assay has as its target T1, A. thaliana PRORP1 (Arabidopsis thaliana, UniProt Q66GI4).
T1 construct: made in house
T1 sequence (Q66GI4 77-572): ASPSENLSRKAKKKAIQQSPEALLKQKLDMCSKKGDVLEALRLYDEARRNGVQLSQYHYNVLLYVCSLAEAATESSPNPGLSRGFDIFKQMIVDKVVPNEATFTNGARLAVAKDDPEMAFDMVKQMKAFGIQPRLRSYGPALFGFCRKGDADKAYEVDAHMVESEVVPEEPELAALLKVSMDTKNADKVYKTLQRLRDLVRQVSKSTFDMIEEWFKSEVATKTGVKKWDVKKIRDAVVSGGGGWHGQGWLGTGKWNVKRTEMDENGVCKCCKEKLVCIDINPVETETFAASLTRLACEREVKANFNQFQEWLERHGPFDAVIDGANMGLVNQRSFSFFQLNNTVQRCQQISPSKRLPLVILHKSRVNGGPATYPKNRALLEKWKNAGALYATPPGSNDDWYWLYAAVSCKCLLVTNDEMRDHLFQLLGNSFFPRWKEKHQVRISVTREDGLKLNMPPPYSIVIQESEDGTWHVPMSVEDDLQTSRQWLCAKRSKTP
The experiment in a line: FP cleavage assay, PRORP1 dose response. It is filed as biochemical. Conditions: for activity at 6.25 µM: 6.25 μM of inhibitor, FP cleavage assay, read-out: PRORP1 Activity (%); for IC50: 30 min preincubation, 0.3 nM PRORP1, 800 nM pre-tRNA, 25 °C, apparent IC50 for juglone. As to the method:
Compounds gambogic acid (A) and juglone (B) were incubated with enzyme at double the reaction concentration for 30 min prior to the addition of an equal volume of substrate to initiate the reaction. PRORP1 reactions (shown in green) were performed with 0.3 nM PRORP1 and 800 nM pre-tRNA containing 40 nM Fl-pre-tRNA at 25 °C in 30 mM MOPS pH 7.8, 5 mM MgCl2, 100 mM NaCl, 1 mM TCEP, 500 nM (12 μg/ml) yeast tRNA, 5 mM spermidine, 6.65 μg/ml BSA, and 0.01% NP-40. MRPP1/2/3 reactions (shown in red) were performed using 50 nM MRPP3, 500 nM MRPP1/2, 500 nM pre-tRNA containing 40 nM Fl-pre-tRNA at 37 °C in 50 mM MOPS (pH 7.8), 1 mM TCEP, 4.5 mM MgCl2, and 100 mM NaCl. B. subtilis RNase P reactions (shown in blue) were performed using 20 nM RNase P and 500 nM pre-tRNA containing 40 nM Fl-pre-tRNA at 37 °C in 50 mM Tris, pH 7.2, 5 mM MgCl2, 100 mM KCl, 500 nM (12 μg/ml) yeast tRNA, 20 mM dithiothreitol (DTT), 10 mM spermidine, and 0.01% NP-40. Equation 1 was fit to each dataset.
The activity of PRORP1 catalyzed pre-tRNA cleavage was measured by monitoring the fluorescence anisotropy (FA) signal (λex = 485 nm and λem = 535 nm) over time at 25 °C in buffer conditions optimized for a high-throughput format, 30 mM MOPS pH 7.8, 5 mM MgCl2, 100 mM NaCl, 1 mM TCEP, 500 nM (12 μg/ml) yeast tRNA, 5 mM spermidine, 6.65 μg/ml BSA, and 0.01% NP-40. Yeast tRNA^mix (Roche) was used to reduce the number of compounds that inhibit PRORP1 activity by targeting tRNA. Prior to each reaction, pre-tRNA was heated for 3 min at 95 °C to unfold the RNA and refolded in the reaction buffer at room temperature (25 °C) for 30 min. Reactions were performed in black, 96-well plates (Corning Incorporation, #3686) using a TECAN plate-reader (Infinite F500, G-factor = 1.05) at 25 °C, and the FA values recorded. Reactions were initiated with the addition of substrate to enzyme. Experiments were done in the presence of excess substrate. The concentration of enzyme was 0.3 to 5 nM, the concentration of labeled substrate (Fl-pre-tRNA) was 40 nM, and the concentration of pre-tRNA was 120 to 4000 nM. The concentration of Fl-pre-tRNA was held constant in all reactions.
The dose response was measured using the FP assay as described above with varying concentrations of compound. Compounds were incubated with PRORP1 at twice the reaction concentration for 30 min prior to the addition of equal volumes of substrate to initiate the reaction. Experiments were done under multiple turnover conditions (same buffer conditions as the FP assay). […] PRORP1 activity was determined as a function of inhibitor concentration, and Equation 1 was fit to the data to determine the IC50 value. The standard error of the mean (SEM) is reported from the fit.(1) Activity(%)=100/1+([I]/IC50)^n

Molecules are shown by their SMILES.

What is called IC50 is the concentration that inhibits the measured activity by half.

As to `CC(C)=CCC[C@]1(C)C=Cc2c(O)c3c(c(CC=C(C)C)c2O1)O[C@]12C(=C[C@@H]4C[C@H]1C(C)(C)O[C@@]2(C/C=C(/C)C(=O)O)C4=O)C3=O` [gambogic acid], the activity at 6.25 µM is 29.1% and the IC50 worked out at 1010 ± 40 nM.
Take `O=C1C=CC(=O)c2c(O)cccc21` [juglone, 5-hydroxy-1,4-naphthalenedione]: the activity at 6.25 µM was found to be 20.2% and the IC50 is 2100 ± 40 nM.

The values above are taken from article PMC9731865, “Gambogic acid and juglone inhibit RNase P through distinct mechanisms” (The Journal of Biological Chemistry, 2022).
